# Experimental data: patent publication US10669238B2, “Irreversible bruton's tyrosine kinase inhibitor” (HEFEI INSTITUTES OF PHYSICAL SCIENCE, CHINESE ACADEMY OF …, priority 2016, dated 2020)
# Molecular target: BTK protein kinase (Homo sapiens, UniProt Q06187)
# Assay: In vitro enzymatic activity against BTK (ADP-Glo)
# Type: biochemical
# Conditions: compound with BTK 4 hours at room temperature; ATP 10 μM, 37° C. 1 hour; values given in μM
# Protocol: In vitro enzymatic activity of the compounds against BTK was determined in a experimental assay of in vitro enzymatic activity using […] kit (purchased from Progema, USA).
# 9 μL of BTK protein kinase (at a concentration of 1.5 ng/μL) was used to react with compounds (1 μL) shown in the following table that were diluted three times in gradient at room temperature for 4 hours (the final concentration of the compound being 10 μM, 3 μM, 1 μM, 0.3 μM, 0.1 μM, 0.03 μM, 0.01 μM, 0.003 μM);
# 2 μL of ATP and 3 μL of the substrate Poly(4:1 Glu, Tyr)Peptide (Promega, USA) (the final concentrations being 10 μM and 0.2 μg/μL, respectively) were added to allow reaction at 37° C. for 1 hour;
# 5 μL of BTK kinase solution after reaction was taken and added into 5 μL of ADP-Glo™ (Promega, USA) reagent to allow reaction at room temperature for 40 mins so as to terminate the kinase reaction and exhaust the remaining ATP;
# 10 μL kinase detecting reagent was added to convert ADP to ATP, and newly synthesized ATP was detected using coupled luciferase/[…] reaction, then the IC50 values were calculated by using a plotting method based on the Envision reading.
# BTK protein kinase, sequence (Q06187 whole entry): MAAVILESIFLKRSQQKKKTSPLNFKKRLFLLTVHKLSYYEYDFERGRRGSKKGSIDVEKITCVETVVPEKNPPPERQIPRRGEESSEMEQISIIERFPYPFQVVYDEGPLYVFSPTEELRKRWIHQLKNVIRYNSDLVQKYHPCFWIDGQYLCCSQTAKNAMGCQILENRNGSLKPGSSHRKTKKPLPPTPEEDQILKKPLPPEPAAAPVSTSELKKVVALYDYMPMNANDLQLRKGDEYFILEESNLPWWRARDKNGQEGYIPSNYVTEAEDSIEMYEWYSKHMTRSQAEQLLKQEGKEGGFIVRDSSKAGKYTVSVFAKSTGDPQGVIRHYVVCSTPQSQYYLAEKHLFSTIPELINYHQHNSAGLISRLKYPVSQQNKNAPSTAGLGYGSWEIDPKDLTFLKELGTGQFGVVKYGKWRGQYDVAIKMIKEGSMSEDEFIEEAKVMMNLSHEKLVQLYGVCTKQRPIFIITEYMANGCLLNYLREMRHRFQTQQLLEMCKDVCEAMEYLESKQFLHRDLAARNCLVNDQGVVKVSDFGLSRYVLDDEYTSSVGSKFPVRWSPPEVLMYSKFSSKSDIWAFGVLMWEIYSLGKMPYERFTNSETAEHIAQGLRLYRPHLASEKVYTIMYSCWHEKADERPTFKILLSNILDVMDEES
row,SMILES,IC50 [µM]
1,"C=CC(=O)Nc1cc(Nc2cc(-c3cccc(NC(=O)c4ccccc4)c3C)cn(C)c2=O)ccc1C(=O)N1CCOCC1 [Compound 12, N-(3-(5-((3-acrylamide-4-(morpholin-4-carbonyl)phenyl)amino)-1-methyl-6-oxo-1,6-dihydropyridin-3-yl)-2-methylphenyl)benzoylamide]",4.62
2,"C=CC(=O)Nc1cc(NC(=O)c2ccc(C(C)(C)C)cc2)c(C)c(-c2cc(Nc3ccc(C(=O)N4CCOCC4)cc3)c(=O)n(C)c2)c1 [Compound 8, 4-(tert-butyl)-N-(5-(2-acrylamide)-2-methyl-3-(1-methyl-5-((4-(morpholin-4-carbonyl)phenyl)amino)-6-oxo-1,6-dihydropyridin-3-yl)phenyl)benzoylamide]",2.61
3,C=CC(=O)Nc1ccc(NC(=O)c2ccc(C(C)(C)C)cc2)c(C)c1-c1cc(Nc2ccc(C(=O)N3CCOCC3)cc2)c(=O)n(C)c1 [Compound 24],1.77

# Same assay, conditions: compound with BTK 4 hours at room temperature; ATP 10 μM, 37° C. 1 hour; values in nM
row,SMILES,IC50 [µM]
1,"Cc1ccc(C(=O)Nc2cccc(-c3cc(Nc4ccc(C(=O)N5CCOCC5)c(NC(=O)CCl)c4)c(=O)n(C)c3)c2C)cc1 [Compound 11, N-(3-(5-((3-chloroacetamide-4-(morpholin-4-carbonyl)phenyl)amino)-1-methyl-6-oxo-1,6-dihydropyridin-3-yl)-2-methylphenyl)-4-(methyl)benzoylamide]",0.152
2,"C=CC(=O)Nc1cc(Nc2cc(-c3cccc(NC(=O)c4cc5ccccc5s4)c3C)cn(C)c2=O)ccc1N1CCN(C(C)=O)CC1 [Compound 92, N-(3-(5-((4-(4-acetylpiperazin-1-yl)-3-acrylamidephenyl)amino)-1-methyl-6-oxo-1,6-dihydropyridin-3-yl)-2-methylphenyl)benzo[b]thiophene-2-carboxamide]",0.0717
3,"C=CC(=O)Nc1cc(Nc2cc(-c3cccc(NC(=O)c4cc5c(s4)CCCC5)c3C)cn(C)c2=O)ccc1N1CCC(N(C)C)CC1 [Compound 83, N-(3-(5-((3-acrylamide-4-(4-(dimethylamino)piperidin-1-yl)phenyl)amino)-1-methyl-6-oxo-1,6-dihydropyridin-3-yl)-2-methylphenyl)-4,5,6,7-tetrahydrobenzo[b]thiophene-2-carboxamide]",0.0167
4,"C=CC(=O)Nc1cc(Nc2cc(-c3cccc(NC(=O)c4cc5c(s4)CCCC5)c3C)cn(C)c2=O)ccc1N1CCN(CC)CC1 [Compound 76, N-(3-(5-((3-acrylamide-4-(4-ethylpiperazin-1-yl)phenyl)amino)-1-methyl-6-oxo-1,6-dihydropyridin-3-yl)-2-methylphenyl)-4,5,6,7-tetrahydrobenzo[b]thiophene-2-carboxamide]",0.025
5,"C=CC(=O)Nc1cc(Nc2cc(-c3cccc(NC(=O)c4ccc(N(C)C)cc4)c3C)cn(C)c2=O)ccc1C(=O)N1CCCC(O)C1 (stereo not drawn) [Compound 55, N-(3-(5-((3-acrylamide-4-(3-hydroxypiperdin-1-carbonyl)phenyl)amino)-1-methyl-6-oxo-1,6-dihydropyridin-3-yl)-2-methylphenyl)-4-(dimethylamino)benzoylamide]",0.181
6,"C=CC(=O)Nc1cc(Nc2cc(-c3cccc(NC(=O)c4ccc(C(C)(C)C)cc4)c3C)cn(C)c2=O)ccc1C(=O)N1CCCC(O)C1 (stereo not drawn) [Compound 47, N-(3-(5-((3-acrylamide-4-(3-hydroxypiperidin-1-carbonyl)phenyl)amino)-1-methyl-6-oxo-1,6-dihydropyridin-3-yl)-2-methylphenyl)-4-(tert-butyl)benzamide]",0.024
7,"CCC(=O)Nc1cc(Nc2cc(-c3cccc(NC(=O)c4ccc(C(C)(C)C)cc4)c3C)cn(C)c2=O)ccc1C(=O)N1CCNCC1 [Compound 41, N-(3-(5-((3-propanamide-4-(piperazin-1-carbonyl)phenyl)amino)-1-methyl-6-oxo-1,6-dihydropyridin-3-yl)-2-methylphenyl)-4-(tert-butyl)benzamide]",0.042
8,"Cc1c(NC(=O)c2ccc(C(C)(C)C)cc2)cccc1-c1cc(Nc2ccc(C(=O)N3CCOCC3)c(NC(=O)CCl)c2)c(=O)n(C)c1 [Compound 2, N-(3-(5-((3-chloroacetamide-4-(morpholin-4-carbonyl)phenyl)amino)-1-methyl-6-oxo-1,6-dihydropyridin-3-yl)-2-methylphenyl)-4-(tert-butyl)benzamide]",0.0379
9,"C=CC(=O)Nc1cc(Nc2cc(-c3cccc(NC(=O)c4ccc(C5CC5)cc4)c3C)cn(C)c2=O)ccc1C(=O)N1CCOCC1 [Compound 66, N-(3-(5-((3-acrylamide-4-(morpholin-4-carbonyl)phenyl)amino)-1-methyl-6-oxo-1,6-dihydropyridin-3-yl)-2-methylphenyl)-4-cyclopropylbenzoylamide]",0.18
10,"C=CC(=O)Nc1cc(Nc2cc(-c3cccc(NC(=O)c4ccc(N(C)C)cc4)c3C)cn(C)c2=O)ccc1N1CCN(CC)CC1 [Compound 74, N-(3-(5-((3-acrylamide-4-(4-ethylpiperazin-1-yl)phenyl)amino)-1-methyl-6-oxo-1,6-dihydropyridin-3-yl)-2-methylphenyl)-4-(dimethylamino)benzoylamide]",0.023
11,"C=CC(=O)Nc1cc(Nc2cc(-c3cccc(NC(=O)c4ccc(C5CC5)cc4)c3C)cn(C)c2=O)ccc1N1CCN(C)CC1 [Compound 72, N-(3-(5-((3-acrylamide-4-(4-methylpiperazin-1-yl)phenyl)amino)-1-methyl-6-oxo-1,6-dihydropyridin-3-yl)-2-methylphenyl)-4-cyclopropylbenzoylamide]",0.18
12,"C=CC(=O)Nc1cc(Nc2cc(-c3cccc(NC(=O)c4ccc(C(C)(C)C)cc4)c3C)cn(C)c2=O)ccc1C(=O)N1CCCC1 [Compound 31, N-(3-(5-((3-acrylamide-4-(pyrrolidin-1-carbonyl)phenyl)amino)-1-methyl-6-oxo-1,6-dihydropyridin-3-yl)-2-methylphenyl)-4-(tert-butyl)benzamide]",0.019

# Other lines, results leading:
row,IC50 [µM],SMILES
1,0.041,"C=CC(=O)Nc1cc(Nc2cc(-c3cccc(NC(=O)c4ccc5c(c4)CCCC5)c3C)cn(C)c2=O)ccc1C(=O)N1CCOCC1 [Compound 43, N-(3-(5-((3-acrylamide-4-(morpholin-4-carbonyl)phenyl)amino)-1-methyl-6-oxo-1,6-dihydropyridin-3-yl)-2-methylphenyl)-5,6,7,8-tetrahydronaphthalene-2-carboxamide]"
2,0.164,"C=CC(=O)Nc1cc(Nc2cc(-c3cccc(NC(=O)c4ccc(CC)cc4)c3C)cn(C)c2=O)ccc1C(=O)N1CCOCC1 [Compound 62, N-(3-(5-((3-acrylamide-4-(morpholin-4-carbonyl)phenyl)amino)-1-methyl-6-oxo-1,6-dihydropyridin-3-yl)-2-methylphenyl)-4-ethylbenzoylamide]"
3,0.03,"C=CC(=O)Nc1cc(Nc2cc(-c3cccc(NC(=O)c4ccc(C)s4)c3C)cn(C)c2=O)ccc1C(=O)N1CCOCC1 [Compound 71, N-(3-(5-((3-acrylamide-4-(morpholin-4-carbonyl)phenyl)amino)-1-methyl-6-oxo-1,6-dihydropyridin-3-yl)-2-methylphenyl)-5-methylthiophene-2-carboxamide]"
4,0.024,"Cc1c(NC(=O)c2ccc(N(C)C)cc2)cccc1-c1cc(Nc2ccc(C(=O)N3CCOCC3)c(NC(=O)CCl)c2)c(=O)n(C)c1 [Compound 36, N-(3-(5-((3-chloroacetamide-4-(morpholin-4-carbonyl)phenyl)amino)-1-methyl-6-oxo-1,6-dihydropyridin-3-yl)-2-methylphenyl)-4-(dimethylamino)benzoylamide]"
5,0.022,"C=CC(=O)Nc1cc(Nc2cc(-c3cccc(NC(=O)c4ccc(C(C)C)cc4)c3C)cn(C)c2=O)ccc1C(=O)N1CCOCC1 [Compound 64, N-(3-(5-((3-acrylamide-4-(morpholin-4-carbonyl)phenyl)amino)-1-methyl-6-oxo-1,6-dihydropyridin-3-yl)-2-methylphenyl)-4-isopropylbenzoylamide]"
6,0.167,"C=CC(=O)Nc1cc(Nc2cc(-c3cccc(NC(=O)c4cc5c(s4)CCCC5)c3C)cn(C)c2=O)ccc1N1CCC(OC)CC1 [Compound 88, N-(3-(5-((3-acrylamide-4-(4-methoxypiperidin-1-yl)phenyl)amino)-1-methyl-6-oxo-1,6-dihydropyridin-3-yl)-2-methylphenyl)-4,5,6,7-tetrahydrobenzo[b]thiophene-2-carboxamide]"
7,0.13,"C=CC(=O)Nc1cc(Nc2cc(-c3cccc(NC(=O)c4cc5ccccc5s4)c3C)cn(C)c2=O)ccc1-n1cccn1 [Compound 85, N-(3-(5-((3-acrylamide-4-(1H-pyrazol-1-yl)phenyl)amino)-1-methyl-6-oxo-1,6-dihydropyridin-3-yl)-2-methylphenyl)benzo[b]thiophene-2-carboxamide]"
8,0.114,"C=CC(=O)Nc1cc(Nc2cc(-c3cccc(NC(=O)c4cc(C)cs4)c3C)cn(C)c2=O)ccc1C(=O)N1CCOCC1 [Compound 70, N-(3-(5-((3-acrylamide-4-(morpholin-4-carbonyl)phenyl)amino)-1-methyl-6-oxo-1,6-dihydropyridin-3-yl)-2-methylphenyl)-4-methylthiophene-2-carboxamide]"
9,0.007,"C=CC(=O)Nc1cc(Nc2cc(-c3cccc(NC(=O)c4cc5c(s4)CCCC5)c3C)cn(C)c2=O)ccc1N1CCN(C)CC1 [Compound 75, N-(3-(5-((3-acrylamide-4-(4-methylpiperazin-1-yl)phenyl)amino)-1-methyl-6-oxo-1,6-dihydropyridin-3-yl)-2-methylphenyl)-4,5,6,7-tetrahydrobenzo[b]thiophene-2-carboxamide]"
